Assay results: patent EP4768487A1, “FUSED LACTAM RING COMPOUND AND USE THEREOF” (Chengdu Zenitar Biomedical Technology Co., Ltd., priority 2023, dated 2025)

Columns and labels:
[1] = test system: BRCA wild-type DLD-1 cells; experiment: Anti-proliferative activity against cells (CCK8): DLD-1; type: cell-based; conditions: Homo sapiens, 72 h + 96 h culture
Method in brief: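 DLD-1 cells (1000/well) in RPMI-1640 with 10% FBS, treated 24 h after plating with PARPi at 0, 1 or 10 µM final. Cultured 72 h, medium exchanged with re-added PARPi, then a further 96 h; read-out by CCK8.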

[2] = molecular target: T1, hERG potassium ion channel (Homo sapiens, UniProt Q12809); experiment: Inhibition of hERG potassium ion channel (Qpatch, CHO cells stably expressing hERG); type: cell-based; conditions: for inhibitory effects on the hERG potassium ion channel (in words): conclusion of Table 17; for inhibition at 2.5 min, 20 µM: human, CHO cells stably expressing hERG, read-out: Inhibition rate at 20 µM
T1 construct: expressed in transfected cells; host or cells: CHO cells
T1 sequence (Q12809 whole entry): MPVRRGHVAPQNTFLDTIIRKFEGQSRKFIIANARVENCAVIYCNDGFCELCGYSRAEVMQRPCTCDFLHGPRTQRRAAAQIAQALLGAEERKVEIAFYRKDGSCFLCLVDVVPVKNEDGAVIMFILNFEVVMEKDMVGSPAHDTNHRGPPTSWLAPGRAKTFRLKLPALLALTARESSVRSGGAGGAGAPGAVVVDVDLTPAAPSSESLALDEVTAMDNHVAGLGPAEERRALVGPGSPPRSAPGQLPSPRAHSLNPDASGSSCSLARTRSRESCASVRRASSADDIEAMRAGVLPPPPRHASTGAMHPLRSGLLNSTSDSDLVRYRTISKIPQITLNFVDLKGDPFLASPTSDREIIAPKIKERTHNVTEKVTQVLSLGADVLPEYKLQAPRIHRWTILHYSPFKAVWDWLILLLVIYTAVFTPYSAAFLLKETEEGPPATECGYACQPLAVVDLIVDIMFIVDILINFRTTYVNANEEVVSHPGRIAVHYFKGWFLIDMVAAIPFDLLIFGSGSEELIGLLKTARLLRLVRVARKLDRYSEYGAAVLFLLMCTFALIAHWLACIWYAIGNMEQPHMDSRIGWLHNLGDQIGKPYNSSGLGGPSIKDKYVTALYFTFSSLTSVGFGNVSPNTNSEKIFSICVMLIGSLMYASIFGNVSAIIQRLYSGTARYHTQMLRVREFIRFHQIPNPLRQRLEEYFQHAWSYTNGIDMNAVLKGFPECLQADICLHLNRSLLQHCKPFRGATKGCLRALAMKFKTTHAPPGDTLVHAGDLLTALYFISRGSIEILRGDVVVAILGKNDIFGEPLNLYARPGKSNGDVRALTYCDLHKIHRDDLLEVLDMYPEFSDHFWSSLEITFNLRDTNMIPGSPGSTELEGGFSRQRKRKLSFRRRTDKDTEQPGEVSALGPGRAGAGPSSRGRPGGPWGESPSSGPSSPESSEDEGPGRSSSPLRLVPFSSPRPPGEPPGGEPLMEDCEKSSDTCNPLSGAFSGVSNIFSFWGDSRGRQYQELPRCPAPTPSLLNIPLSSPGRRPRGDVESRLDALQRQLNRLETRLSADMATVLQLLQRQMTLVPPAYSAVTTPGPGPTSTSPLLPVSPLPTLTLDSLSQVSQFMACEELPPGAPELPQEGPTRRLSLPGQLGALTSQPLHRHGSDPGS
Description: Cell culture and treatment: CHO cells stably expressing hERG were cultured in a cell culture flask and incubated in an incubator with 5% CO2 at 37 °C. When the cell density reached 60%-80%, the cell culture medium was removed by pipetting. The cells were washed once with PBS, and then Detachin was added for detachment. After complete detachment, a culture medium was added for neutralization. The cells were then centrifuged, and the supernatant was removed by pipetting. A culture medium was further added for resuspension, and the cell density was adjusted to (2-5) × 10^6 cells/mL for later use.
Compound preparation: The compound stock solution was diluted with 100% DMSO. Specifically, 10 µL of the compound stock solution was added to 20 µL of DMSO, followed by a 3-fold serial dilution to obtain 6 concentrations. 4 µL of each of the 6 compound solutions at different concentrations was taken and added to 396 µL of an extracellular fluid, resulting in a 100-fold dilution to obtain 6 intermediate concentrations. Then, 80 µL of each of the 6 intermediate-concentration compound solutions was taken and added to 320 µL of an extracellular fluid, resulting in a 5-fold dilution to achieve the final test concentrations. The highest test concentration was 40 µM. […] DMSO at this concentration has no effect on the hERG potassium channel. During the compound preparation, the entire dilution process was completed by a Bravo instrument.
Electrophysiological recording process: The single-cell high-impedance sealing and whole-cell mode formation processes were all completed automatically by a Qpatch instrument. After achieving the whole-cell recording mode, the cells were clamped at -80 mV. Before a 5-second +40 mV depolarizing stimulus was applied, a 50-millisecond -50 mV prepulse voltage was first applied. The potential was then repolarized to -50 mV and held for 5 s, and finally returned to -80 mV. This voltage stimulation was applied every 15 s. After 2 min of recording, the extracellular fluid was administered, followed by recording for 5 min. Then, the compound administration process began, starting from the lowest test compound concentration. Each test concentration was applied for 2.5 min. After all the concentrations were applied consecutively, the positive control compound, 3 µM Cisapride, was administered. At least 3 cells (n ≥ 3) were tested for each concentration.
Data processing: Data analysis and processing were performed using GraphPad Prism 5.0 and Excel software. The IC50 of the compound was calculated using GraphPad Prism 5 software by equation fitting as follows: Y = Bottom + (Top−Bottom)/(1+10^(∧)((LogIC50−X)*HillSLope)) [formula] where X is the Log value of the test concentration of the test sample, Y is the inhibition percentage at the corresponding concentration, and Bottom and Top are the minimum and maximum inhibition percentages, respectively. Table 17. Results of inhibition of hERG potassium ion channel by compounds

[3] = Pharmacokinetic evaluation in Balb/c mice; type: in vivo; conditions: 1mg/kg, PO; for AUC(0-t) / Cmax / half-life: male, mouse, plasma
Description: Experimental objective: To understand the pharmacokinetic profiles of the compounds. Experimental basis: Technical guidelines for non-clinical pharmacokinetic studies of chemical drugs, 2014.
Experimental scheme: The pharmacokinetic profiles of the compounds were investigated by intravenous administration (1 mg·kg^-1) and intragastric administration (1 mg·kg^-1) in Balb/c mice.
Sample preparation: About 0.2 mg of the compound was weighed out and dissolved in 10 µL of DMSO, and then a sodium chloride solution for injection was added to prepare a 0.1 mg·mL^-1 compound solution for later administration.
Three of the mice were subjected to intravenous administration (IV) at 1 mg·kg^-1, while the other three were subjected to intragastric administration (PO) at 1 mg·kg^-1. About 0.05 mL of blood was collected at 5 min, 15 min, 30 min, 1 h, 2 h, 4 h, 6 h, 8 h, 10 h, 24 h, and 48 h after administration. The collected blood was centrifuged at 3500 rpm for 15 min. The supernatant plasma was then collected and cryopreserved at -40 °C for later analysis. The plasma concentration was quantitatively analyzed using the LC-MS/MS method, and pharmacokinetic parameters such as […] (Cmax), area under plasma concentration-time curve (AUC(0-t)), half-life (T1/2), clearance rate (CL), tissue distribution (Vdss), and bioavailability (F) were calculated. Table 18. Results of pharmacokinetic test of compounds in Balb/c mice

[4] = test system: CD34+ hematopoietic stem and progenitor cells (hmPB34-P-SC); experiment: Hematological toxicity assay (CellTiter-Glo 2.0); type: cell-based; conditions: 120 h; 5 days of culture
Description: The next day, the cells were resuspended and seeded in a 96-well plate at a concentration of 1000 cells/well, and meanwhile, different concentrations of the drug were added for treatment, with 3 replicate wells set for each concentration. After 5 days of culture, the number of viable cells in each well was determined using a CellTiter-Glo 2.0 kit, followed by detection by a microplate reader.

IC50 [1] | Vdss [3] | AUC(0-t) [3] | Cmax [3] | half-life [3] | Structure (SMILES) | inhibitory effects on the hERG potassium ion channel (in words) [2] | inhibition at 2.5 min, 20 µM [2] | CL [3] | IC50 [4]
> 1000 nM | 0.38 L/kg | 5400 ng·h/mL | 2350 ng/mL | 1.36 h | CCc1cc2c([nH]c1=O)CC(CN1CCN(c3ccc(C(=O)NC)nc3F)CC1)OC2 (centres unmarked) [Compound 2, 5-(4-((3-Ethyl-2-oxo-1,5,7,8-tetrahydro-2H-pyrano[4,3-b]pyridin-7-yl)methyl)piperazin-1-yl)-6-fluoro-N-methyl picolinamide] | Conclusion: Compounds 2, 6, 45, 62, 67, 74, 83, 87, etc., of the present disclosure exhibited relatively weak inhibitory effects on the hERG potassium ion channel. | 6.7% | 3.17 mL/min/kg | 738 nM
> 1000 nM | 1.06 L/kg | 17100 ng·h/mL | 2350 ng/mL | 2.52 h | CNC(=O)c1ccc(N2CCN(CC3Cc4[nH]c(=O)c(C)cc4CO3)CC2)c(Cl)n1 (centres unmarked) [Example 74, 6-Chloro-N-methyl-5-(4-((3-methyl-2-oxo-1,5,7,8-tetrahydro-2H-pyrano[4,3-b]pyridin-7-yl)methyl)piperazin-1-yl)picolinamide] | Conclusion: Compounds 2, 6, 45, 62, 67, 74, 83, 87, etc., of the present disclosure exhibited relatively weak inhibitory effects on the hERG potassium ion channel. | 17.7% |  | > 1000 nM

Structure (SMILES) | IC50 [1] | Vdss [3] | AUC(0-t) [3] | Cmax [3] | half-life [3] | inhibitory effects on the hERG potassium ion channel (in words) [2] | inhibition at 2.5 min, 20 µM [2] | CL [3] | IC50 [4]
CNC(=O)c1ccc(N2CCN(C[C@H]3CCc4nc(C)c(=O)[nH]c4C3)CC2)c(F)n1 [Example 45, (S)-6-Fluoro-N-methyl-5-(4-((2-methyl-3-oxo-3,4,5,6,7,8-hexahydroquinoxaline-6-yl)methyl)piperazin-1-yl)picolinamide] | > 1000 nM | 6.85 L/kg | 1540 ng·h/mL | 359 ng/mL | 7.98 h | Conclusion: Compounds 2, 6, 45, 62, 67, 74, 83, 87, etc., of the present disclosure exhibited relatively weak inhibitory effects on the hERG potassium ion channel. | 13% | 9.83 mL/min/kg | 331 nM
